Reference: patent publication US6531636B1, “Synthetic endogenous cannabinoids analogues and uses thereof” (priority 1998, dated 2003)

Experiments:
[1] = tested on: rats, mean arterial pressure; assay: Hypotensive effect in non-anaesthetized cannulated rats; assay type: in vivo; conditions: dose 12 mg/Kg
Description: To evaluate the potency of the compounds of the present invention as anti-hypertension agents, each compound was dissolved in a mixture of ethanol:emulphor:saline (1:1:18) and administered to non-anaestisized rats, cannulated through the aorta (for injection) and the jugular view (for measurements of blood pressure). […]

[2] = tested on: female mice, arachidonic acid-induced paw swelling; assay: Arachidonic acid-induced paw edema in mice; assay type: in vivo; conditions: paw volume 30 min after arachidonic acid
Description: The potency of each of the compounds of the invention were evaluated for their potency to act as anti-inflammatory agents, according to the method described Calhoun W. et al., [Calhoun W. et al. Agents and Actions 21:306-309 (1987)]. In the method, water was substituted for mercury as the displacement medium. Platelet Activating Factor (PAF) (1.0 μg) or arachidonic acid (1.0 mg) dissolved in […] of a saline buffer containing 5% ethanol were injected subcutaneously into the plantar surface of the right hind paw of ether anaesthetized female mice (20-25 gr). The volume of the right foot was measured to the level of the lateral malleous by water displacement before treatment and 15 min after PAF injection or 30 min after arachidonic injection. The change in paw volume was calculated for each mouse. Table 2 presents the inhibition of archidonic acid induced paw swelling. The values obtained are measured as the increase in paw volume using a plethysmometer. The degree of swelling was expressed as the percentage in drug-treated mice compared to inhibition of paw edema from vehicle (Emulphor:ethanol:saline) treated controls (95% significance by ANOVA. N=5 mice/group). Control animals received peanut oil (50 μl).

CB1 receptor = target: T1, CB1 receptor (Rattus norvegicus, UniProt P20272); assay: Competitive inhibition of [3H]HU-243 binding to CB1, synaptosomal membranes; conditions: [3H]HU-243 60 pM, synaptosomal membrane protein
T1 construct: 4 μg of synaptosomal membrane protein were homogenized in 50 mM Tris-HCl; from tissue; host or cells: synaptosomal membranes (brain tissue)
Description: In principle, 4 μg of synaptosomal membrane protein were homogenized in 50 mM Tris-HCl, 2 mM MgCl2 and 1 mM EDTA pH 7.4 to obtain the binding mixture having a final concentration of 60 pM, with which the Ki was determined according to the assay described by Devane et al. [Devane et al. (1992) ibid.]. […] Ki values were calculated according to following known equation: Ki-IC50/(1+[L]/Kd) wherein IC50 is the concentration of a compound that will reduce a specific binding of a given radioligand by 50%; [L] is the concentration of the radioligand used in the assay and Kd is the dissociation constant for the radioligand (see also FIG. 3).

mice = assay: Analgesia, standard hot plate test in mice; assay type: in vivo; conditions: intravenous injection in tail vein
Description: The novel compounds prepared as described above were evaluated for their potency in […], according to the standard hot plate test, as briefly described hereinafter.
The compounds of the invention (HU-310, HU-313 and HU-314) wee dissolved in a detergent (Emulphomethanol:saline (5:5:90)) mixture and administered by intravenous injection in the tail vein of mice with an injection volume of 0.1 ml/10 g of body weight.

[3] = tested on: pigeons suffering from emesia caused by cisplatin; assay: Antiemetic activity, cisplatin-induced emesis in pigeons; assay type: in vivo; conditions: subcutaneous
Description: The compounds of the invention were also evaluated for their potency as an antiemetic agent following the procedure described by Feigenbaum et al., [Eur. J. Pharmacol. 169:159-165 (1989, wherein pigeons suffering from emesia caused by an antineoplastic drug (cisplatin) were used as the model.
Accordingly, each compound was dissolved in Emulphor (detergent):ethanol:saline (5:5:90) and administered subcutaneously to the pigeons. The injection volume was 1.0 ml/kg body weight. Reduction of vomiting with 2-O-Arachidonyl glyceryl ether (HU-310) was 50% when using 3.0 mg of the active ingredient per kg body weight.

[4] = tested on: rabbits with chymotrypsin-induced glaucoma; assay: Antiglaucoma activity, chymotrypsin-induced stable glaucoma in rabbits; assay type: in vivo; conditions: 0.01% in aqueous solution
Text: Each compound was further evaluated for their potency as agent for treating and/or preventing glaucoma. Accordingly, stable glaucoma was induced in rabbits by injecting into the eye δ-chymotrypsin as described by Mechoulam R. et al., [Mechoulam R. et al., The Therapeutic Potential of Marihuana eds S. Cohen, R. C. Stillman Plenum Press, N.Y., pp. 35-48 (1975)]. As a control, pilocarpine, a standard antiglaucoma drug, was employed showing intraocular pressure (I.O.P.) reduction at a concentration of 0.01% in aqueous solution and provided a period of 30 hours delay in the recovery of the original chymotrypsin-induced IOP.
The compounds of the invention were each dissolved in a detergent (Emulphor:ethanol:saline (5:5:90)) mixture and then further diluted with saline to obtain the desired concentrations.

T1 sequence (P20272 whole entry): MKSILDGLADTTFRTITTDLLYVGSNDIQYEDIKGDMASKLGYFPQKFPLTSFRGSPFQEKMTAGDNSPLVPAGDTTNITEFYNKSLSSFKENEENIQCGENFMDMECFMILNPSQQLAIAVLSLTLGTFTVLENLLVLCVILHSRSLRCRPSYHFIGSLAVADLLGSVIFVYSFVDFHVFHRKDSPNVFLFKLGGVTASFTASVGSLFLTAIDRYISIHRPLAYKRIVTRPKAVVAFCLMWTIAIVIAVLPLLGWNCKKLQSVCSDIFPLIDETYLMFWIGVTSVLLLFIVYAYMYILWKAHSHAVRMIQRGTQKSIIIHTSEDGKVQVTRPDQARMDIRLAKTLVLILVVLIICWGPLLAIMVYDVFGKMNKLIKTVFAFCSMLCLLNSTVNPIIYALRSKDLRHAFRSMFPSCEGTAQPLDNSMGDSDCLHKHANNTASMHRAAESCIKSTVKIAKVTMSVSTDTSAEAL

Compound	Latency to maximal effect [1]	Maximal hypotension (difference in mean arterial pressure before and after drug) [1]	Time of recovery [1]	Analgesia, ED50 (mice)	also measured
CCCCC/C=C\C/C=C\C/C=C\C/C=C\CCCCOC(CO)CO [HU-310, 2-O-Arachidonyl glyceryl ether]	34.0 min	105 mm Hg	75.0 min	2.8 mg/kg	Inhibition of Arachidonic Acid-induced Paw Edema ([2]; dose 5 mg/kg): 70.2%; Inhibition of Arachidonic Acid-induced Paw Edema ([2]; dose 10 mg/kg): 92.2%; Inhibition of Arachidonic Acid-induced Paw Edema ([2]; dose 25 mg/kg): 100.0%; Ki (CB1 receptor): 62.3 ± 3 nM; Reduction of vomiting ([3]; 3.0 mg per kg body weight): 50%
CCCCC/C=C\C/C=C\C/C=C\C/C=C\CCCC(=O)NCCO [ANA, anandamide]	2.0 min	15 mm Hg	7.0 min		
CC[C@@H]1C(=O)OC[C@@H]1Cc1cncn1C [pilocarpine]					Delay in the recovery of the original chymotrypsin-induced IOP [4]: 30 h
CCCCC/C=C\C/C=C\C/C=C\CCCCCCCOC(CO)CO [HU-314, 2-dihomo-γ-linolenyl glyceryl ether]				4.6 mg/kg	Reduction of vomiting (in words) ([3]; compared with HU-310): vomiting was also reduced, however to a lesser extent
CCCCC/C=C\C/C=C\C/C=C\C/C=C\CCCC(=O)OC(CO)CO [2-Ara-GL, 2-arachidonoyl glycerol]	7.2 min	34 mm Hg	13.0 min		
